Target: CDK2 (human) (UniProt P24941)
Assay: Cell-Based Assay

`COc1cc[nH]c1/C=C1\C(=O)Nc2ccc([N+](=O)[O-])c(NC3CCC(N)C3)c21` (stereo unspecified) showed an IC50 (mda-mb-435) of 61 nM and an IC50 (rko) of less than 15 nM.

For `COc1cc[nH]c1/C=C1\C(=O)Nc2ccc([N+](=O)[O-])c(NC3CCC(O)C3)c21` (stereo unspecified), the IC50 (mda-mb-435) was 1000 nM and the IC50 (rko) was 339 nM.

`COc1cc[nH]c1/C=C1\C(=O)Nc2ccc(F)cc21` was tested, and the IC50 (mda-mb-435) was greater than 30000 nM.

For `COc1cc[nH]c1/C=C1\C(=O)Nc2ccc([N+](=O)[O-])c(N3CCC(O)CC3)c21`, the IC50 (rko) was less than 10 nM.

`COc1cc[nH]c1/C=C1\C(=O)Nc2ccc([N+](=O)[O-])c(N3CCC(N)CC3)c21` was tested, and the IC50 (mda-mb-435) was less than 10 nM and the IC50 (rko) was less than 10 nM.

`COc1cc[nH]c1/C=C1\C(=O)Nc2ccc([N+](=O)[O-])c(N3CC[C@@H](N)C3)c21` was tested, and the IC50 (mda-mb-435) was less than 10 nM and the IC50 (rko) was less than 10 nM.

For `COc1cc[nH]c1/C=C1\C(=O)Nc2ccc([N+](=O)[O-])c(-n3ccnc3)c21`, the IC50 (mda-mb-435) was greater than 30000 nM.

Source: the Kinase Knowledgebase extract (Sharma et al. 2016)
